Entries after “also recorded” stand apart in the source; their conditions may differ. Where a SMILES comes first, the peptide text is derived from it. The star is where a group is joined. Cbz = O=C(OCc1ccccc1)*
What was measured:
eNOS mRNA [1] = assay: eNOS mRNA levels by real-time RT-PCR in CPAE cells; format: cell-based, bovine
Procedure: (§1) The bovine pulmonary artery endothelial cell line (CPAE cells) was purchased from the American Type Culture Collection (ATCC, # CCL-209) and was cultured in MEM supplemented with 5% FCS, 1.5 g/L sodium bicarbonate, 0.11 g/L sodium pyruvate, 100 U/mL penicillin, and 100 μg/ml streptomycin. Human umbilical vein endothelial cells (HUVECs) were isolated and cultured as described previously (Stangl et al. Homocysteine inhibits TNF-α-induced endothelial adhesion molecule expression and monocyte adhesion via nuclear factor-κB dependent pathwas. Biochem Biophys Commun. 2001; 280:1093-1100). Purity of HU-VECs was assessed by von Willebrand factor staining. For experiments, cells were seeded onto […] dishes and were treated with either proteasome inhibitors MG132, MG262, with the non-proteasomal cathepsin inhibitor ALLM, or with solvent (DMSO) for the times and concentrations indicated. In some experiments, the transcription inhibitor α-amanitin (2.5 μg/mL) was pre-incubated one hour before addition of proteasome inhibitor. Cell viability was assessed by trypan blue exclusion. For HUVECs, the inventors used only second- to third-passage cells for all experiments. For phalloidin-DAPI double staining, cells were fixed with 4% paraformaldehyde, permeabilized with 1% Triton, and blocked with 1% FCS. The inventors took cell photos with a Zeiss camera and analysed them with Axiovert 3.0 software.
After treatment, cells were lysed in Trizol reagent (Gibco Life Technologies, Karlsruhe, Germany) and 800 ng of total RNA were reversed transcribed with random hexamers. Primer sequences were synthesized by TIB Molbiol (Berlin, Germany), and TaqMan probes by Eurogentec (Seraing, Belgium). Table 1 summarizes the sequences of primers and probes used in this study. mRNA expression was standardized to the HPRT (hypoxanthine phosphoribosyl transferase) gene as a housekeeping gene, the transcription level of which were not influenced under our experimental conditions. PCR amplification was carried out in 25 μL TaqMan Universal PCR Master Mix (Perkin Elmer Applied Biosystems, Foster City, Calif.) containing either 0.3 or 0.9/μmol/L primer, 0.2/μmol/L TaqMan probe, and 1 μl of the reverse transcription reaction in a 5700 Sequence Detection System (Perkin Elmer Applied Biosystems). Thermal cycling conditions comprised an initial denaturation step at 95° C. for 10 minutes, followed by 95° C. for 15 seconds and 60° C. for 1 minute for 40 cycles. Size and purity of the amplification products were verified on a 20% PAA gel. The CT (threshold cycle) is defined as the number of cycles required for the fluorescence signal to exceed the detection threshold. The expression of the target gene relative to the housekeeping gene was calculated as the difference between the threshold values for the two genes.
The SYBR Green method was applied for quantitative amplification of bovine eNOS mRNA. In our analysis with the transcription inhibitor α-amanitin—which blocks RNA polymerase II, whereas RNA polymerase I is insensitive to this toxin (Lindell T J et al. Specific inhibition of nuclear RNA polymerase II by alpha-amanitin. Science. 1970; 170: 447-449)—the inventors standardized eNOS mRNA expression to RP29 (ribosomal protein 29) gene as housekeeping gene. Thermal cycling conditions were identical to the TaqMan PCR.

eNOS [2] = assay: eNOS protein expression by Western blot in CPAE cells; format: cell-based, bovine; settings: for upregulation of eNOS protein (specificity comparison with MG132): equipotent doses
Procedure: as §1
(§2) After treatment, cells were washed twice with PBS and lysed in extraction buffer containing in mmol/L: Tris/HCl 50 (pH 7.4), KCl 154, glucose 5, EDTA 0.5, PMSF 1, DTT 2, and 1% Triton X-100. Total protein (50 μg per lane) was subjected to SDS-PAGE and membranes were probed with anti-eNOS monoclonal antibody (1:2500) or with anti-ubiquitin antibody (1:1000). Membranes were incubated with secondary anti-mouse antibody (1:2500) conjugated to alkaline phosphatase for eNOS or with anti-rabbit antibody conjugated to horseradish peroxidase (1:10000) for ubiquitin. Bands were visualized by using BCIP and Nitro Blue Tetrazolium (Sigma) for eNOS, and by employing the ECL detection system (Amersham) for ubiquitin.

proteasome = assay: Accumulation of poly-ubiquitinylated proteins (anti-ubiquitin Western blot) in CPAE cells; format: cell-based, bovine
Procedure: as §1, §2

eNOS [3] = assay: eNOS activity, L-[3H]arginine to L-[3H]citrulline conversion in extracts of treated CPAE cells; format: cell-based, bovine
Procedure: eNOS activity was assessed by the formation of L-[^3H]citrulline from L-[^3H]arginine after separation of the amino acids by cation exchange chromatography. Endothelial cells were washed with PBS and lysed in the same extraction buffer as for Western blot analysis. The inventors added 50 μg of total protein to the reaction mixture containing 50 mmol/L Hepes pH 7.4, 0.1% Triton X-100, 1 mmol/L EDTA, 1.25 mmol/L CaCl2, 1 mmol/L DTT, 1 μmol/L FAD, 15 μmol/L BH4, 1 mmol/L NADPH, and 1 μCi L-[^3H]arginine. Incubation was performed for 30 minutes at 37° C. Reactions were terminated by adding 0.5 ml of ice-cold Dowex (Na^+ form). L-[^3H]citrulline was separated from L-[^3H]arginine by Dowex chromatography, and L-[^3H]citrulline formation was quantified by liquid scintillation counting. The inventors subtracted the values obtained from samples incubated without cell extracts. […] In some samples, CaCl2 was omitted from the reaction buffer to exclude any contribution of inducible NO synthase (iNOS).

CPAE cells = assay: Cell viability by trypan blue exclusion; format: cell-based, bovine
Procedure: as §1, with “For phalloidin-DAPI double staining, cells were fixed with 4% paraformaldehyde, permeabilized with 1% Triton, and blocked with 1% FCS.” left out

[4] = test system: cultured neonatal rat cardiomyocytes; settings: cited from earlier work
eNOS mRNA [5] = assay: eNOS mRNA levels by real-time RT-PCR in HUVECs, with or without TNF-α; format: cell-based, human; settings: 48 hours
Procedure: Purity of HU-VECs was assessed by von Willebrand factor staining. For experiments, cells were seeded onto 6-mm diameter dishes and were treated with either proteasome inhibitors MG132, MG262, with the non-proteasomal cathepsin inhibitor ALLM, or with solvent (DMSO) for the times and concentrations indicated. In some experiments, the transcription inhibitor α-amanitin (2.5 μg/mL) was pre-incubated one hour before addition of proteasome inhibitor. Cell viability was assessed by trypan blue exclusion. For HUVECs, the inventors used only second- to third-passage cells for all experiments.
For eNOS expression in HUVECs, cells were treated with DMSO (control), TNF-α (1, 2.5 and 5 ng/ml) and TNF-α (same concentrations) in the presence of 70 nM MG132, for 48 hours, whereupon eNOS mRNA levels were measured (see Method 3).
After treatment, cells were lysed in Trizol reagent (Gibco Life Technologies, Karlsruhe, Germany) and 800 ng of total RNA were reversed transcribed with random hexamers. Primer sequences were synthesized by TIB Molbiol (Berlin, Germany), and TaqMan probes by Eurogentec (Seraing, Belgium). […] The CT (threshold cycle) is defined as the number of cycles required for the fluorescence signal to exceed the detection threshold. The expression of the target gene relative to the housekeeping gene was calculated as the difference between the threshold values for the two genes.

eNOS [6] = assay: eNOS protein expression by Western blot in HUVECs; format: cell-based, human
Procedure: as §1, with “For phalloidin-DAPI double staining, cells were fixed with 4% paraformaldehyde, permeabilized with 1% Triton, and blocked with 1% FCS.” left out, “software. […]” for “software.”

rat aortic rings = assay: Vasorelaxation studies in pretreated rat aortic rings (organ chamber); format: cell-based; settings: 48 hours
Procedure: Thoracic aortas from male Wistar rats were rapidly excised, cleaned of connective tissue, and cut into rings 2 to 3 mm in length for organ-chamber experiments. Rings were incubated with MG132 100 nmol/L, 250 nmol/L, or solvent, or TNF-α (250 pg/ml) in the presence and absence of 250 nM MG132, for 48 hours in MEM at 37° C. containing 50 U/mL penicillin, 50 μg/mL streptomycin, 0.1% BSA, and 1 μg/mL polymyxin B. The rings were then mounted on platinum hooks in 10 ml jacketed organ baths containing modified Krebs-Henseleit solution (composition in mmol/L: NaCl 144, KCl 5.9, CaCli 1.6, MgSO^4− 1.2, KH2PO4^− 1.2, NaHCO3^− 25, and D-glucose 11.1) and diclofenac 1 μmol/L. Tension was gradually adjusted to 2 g over 1 hour. The solution in the bath was kept at 37° C. with a gas mixture of […]. Following equilibration and submaximal precontraction with phenylephrine (0.05 μmol/L), relaxation to increasing concentrations (1 nmol/L to 1 μmol/L) of the endothelium-dependent vasodilator acetylcholine was performed to obtain cumulative concentration-response curves. Selected studies were conducted in rings treated with L-NAME (1 mmol/L) before phenylephrine exposure. Maintenance of smooth-muscle integrity following incubation with the proteasome inhibitor or solvent was confirmed by evaluation of endothelium-independent vasodilation to papaverine (1 nmol/L to 1 μmol/L).

cardiomyocytes = settings: cited from earlier work
[7] = rat aortic rings pretreated 100 and 250 nmol/L

Compound: CC[C@H](C)[C@@H]1NC(=O)CNC(=O)[C@@H]2Cc3c([nH]c4cc(O)ccc34)[S+]([O-])C[C@@H](NC(=O)CNC1=O)C(=O)N[C@@H](CC(N)=O)C(=O)N1C[C@H](O)C[C@H]1C(=O)N[C@@H]([C@@H](C)[C@@H](O)CO)C(=O)N2 (stereo in doubt) [α-amanitin]
- effect on overall eNOS mRNA levels (eNOS mRNA [1]; 2.5 μg/mL, pre-incubated 1 hour): reduced overall eNOS mRNA levels

Compound: CSCC[C@@H](C=O)NC(=O)[C@H](CC(C)C)NC(=O)[C@H](CC(C)C)NC(C)=O [ALLM, N-acetyl-leucyl-leucyl-methioninal] (Ac-Leu-Leu-Met-aldehyde)
- upregulation of eNOS protein (specificity comparison with MG132) (eNOS [2]): had no effect; also recorded: failed to upregulate eNOS
- proteasome inhibition (poly-ubiquitinylated proteins), comparison with MG132 (proteasome; corresponding doses): failed to inhibit the proteasome

Compound: CC(C)C[C@@H](C=O)NC(=O)[C@H](CC(C)C)NC(=O)[C@H](CC(C)C)NC(=O)OCc1ccccc1 [MG132, N-carbobenzoxy-L-leucinyl-L-leucinyl-L-leucinal] (Cbz-Leu-Leu-Leu-aldehyde)
- time at which the increase in eNOS activity begins (eNOS [3]): 24 h
- duration of enhanced eNOS enzyme activity after a single dose (eNOS [3]; 100 nmol/L single dose): up to 10 days
- effect on eNOS expression at 20 nmol/L (eNOS [2]; 20 nmol/L): did not affect eNOS expression
- time from which eNOS upregulation is significant (eNOS [2]; 50 nmol/L): 24 h
- duration of enhanced eNOS protein after a single dose (eNOS [2]; 100 nmol/L single dose): up to 10 days
- effect on eNOS protein levels at higher concentrations (eNOS [2]; 500 nmol/L and above): decreased eNOS protein levels
- effect on eNOS protein levels at low concentrations (eNOS [2]; 50 to 250 nmol/L): gradually increased eNOS protein levels
- time at which the rise of eNOS protein expression began (eNOS [2]; incubation with single dose): 16 h
- eNOS protein expression versus control (eNOS [2]; single dose 100 nmol/L, 48 hours): 2.4 fold
- toxic doses by trypan blue exclusion (CPAE cells): higher than 250 nmol/L
- concentration from which poly-ubiquitinylated proteins accumulate (proteasome): ≥ 50 nmol/L
- proteasome inhibition at 20 nmol/L (proteasome; 20 nmol/L): had no proteasomal inhibitory influence
- time for which poly-ubiquitinylated proteins are detectable after a single dose (proteasome; 100 nmol/L single dose): three
- accumulation of poly-ubiquitinylated proteins (proteasome; 50 to 250 nmol/L): led to accumulation of poly-ubiquitinylated proteins
- time at which upregulation of eNOS mRNA begins (eNOS mRNA [1]): 16 h
- time at which eNOS mRNA is still elevated after a single dose (eNOS mRNA [1]; 100 nmol/L single dose): 7 days
- maximum eNOS mRNA level, times the control level (eNOS mRNA [1]; 100 nmol/L, 24 hours): 6.5 times the control level
- MG132-induced increase in eNOS mRNA after α-amanitin pretreatment (eNOS mRNA [1]; α-amanitin pretreatment 1 hour): without eliminating the increase in mRNA levels induced by MG132
- spontaneous beating time of cardiomyocytes at 46° C. ([4]; 1 μM, control hyperthermia 5+/−2 min): 28 ± 5 min
- induction of heat shock proteins at mRNA and protein levels [4]: time- and concentration-dependently induced Hsp72 and Hsp32
- eNOS mRNA expression in presence of TNF-α versus TNF-α alone (eNOS mRNA [5]; HUVECs, 70 nM with TNF-α 1, 2.5, 5 ng/ml): substantially increased expression of eNOS mRNA
- eNOS protein expression in HUVECs (eNOS [6]): dose-dependent increase in eNOS
- maximum relaxation to acetylcholine, percentage of phenylephrine precontraction (rat aortic rings; rat aortic rings pretreated 250 nmol/L): 89.4±5.7%
- endothelial-independent vasorelaxation in response to papaverine (rat aortic rings; [7]): remained unaffected
- endothelium-dependent relaxation to acetylcholine (rat aortic rings; [7]): significantly enhanced
- vasoreactivity to acetylcholine of TNF-α-damaged aortic rings (rat aortic rings; rat aortic rings, 250 nM with TNF-α 250 pg/ml): vasoreactivity can be significantly improved
- protective effects at concentrations of less than 1 μM (cardiomyocytes): did not exhibit protective effects

Compound: CC(C)C[C@H](NC(=O)[C@H](CC(C)C)NC(=O)[C@H](CC(C)C)NC(=O)OCc1ccccc1)B(O)O [MG262]
- upregulation of eNOS protein (specificity comparison with MG132) (eNOS [2]): also upregulates eNOS; also recorded: Comparable results; also recorded: induced upregulation of eNOS protein to an extent similar to that caused by MG132

Compound: TNF-α
- eNOS mRNA expression versus DMSO control (eNOS mRNA [5]; HUVECs, 1, 2.5 and 5 ng/ml): reduction and almost abolition of mRNA expression
- acetylcholine-dependent vasodilatation versus DMSO control (rat aortic rings; rat aortic rings, 250 pg/ml): significantly reduced

Reference: patent US20060199772A1, “Use of a proteasome inhibitor in the treatment of endothelial dysfunction and/or in a low-dose proteasome inhibitor therapy” (Charite'-Universitaetsmedizin Berlin, priority 2002, published 2006)
